The values below come from US10533010B2, “Substituted indole Mcl-1 inhibitors” (Vanderbilt University, priority 2014, dated 2020).

This test concerns the target recombinant Mcl-1 (residues 172-327) (Homo sapiens (Human), UniProt Q07820). Nature of the test: Fluorescence polarization anisotropy competition assay (FITC-Bak or FITC-Bim BH3 peptide) with Mcl-1. Type of test: binding. Conditions: Table 2, FITC-Bak or FITC-Bim peptide competition, Ki converted from IC50, read-out: Ki for Inhibition of Mcl-1. Background: In fluorescence polarisation assays a small probe gives low polarisation when free and higher when bound to something large.

Structures are written as SMILES. Read-outs that look alike come from different tables or passages of the source.

Sequence of recombinant Mcl-1 (residues 172-327) (Q07820 172-327): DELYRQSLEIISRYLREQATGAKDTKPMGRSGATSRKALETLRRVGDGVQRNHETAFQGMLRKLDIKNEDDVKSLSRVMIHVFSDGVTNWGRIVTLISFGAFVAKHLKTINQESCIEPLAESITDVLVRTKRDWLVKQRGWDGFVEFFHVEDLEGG

On to `Cc1cc(OCCCc2c3n(c4c(-c5c(C)nn(C)c5C)c(Cl)ccc24)CCCN(c2ccc(C(=O)NS(=O)(=O)C4CC4)cc2)C3=O)cc(C)c1Cl` [I-361, 4-(8-chloro-11-(3-(4-chloro-3,5-dimethylphenoxy)propyl)-1-oxo-7-(1,3,5-trimethyl-1H-pyrazol-4-yl)-4,5-dihydro-H-[1,4]diazepino[1,2-a]indol-2(3H)-yl)-N-(cyclopropylsulfonyl)benzamide], for which the inhibition constant (Ki) – broadly, the dissociation constant of the complex between target and ligand, obtained from inhibition or displacement – (Ki bins given in nM) is below 50 nM.

`Cc1cc(OCCCc2c3n(c4c(-c5c(C)nn(C)c5C)c(Cl)ccc24)C(C)CN(Cc2ccc(C(=O)O)cc2)C3=O)cc(C)c1Cl` (stereo not shown) [I-130, 4-((7-chloro-10-(3-(4-chloro-3,5-dimethylphenoxy)propyl)-4-methyl-1-oxo-6-(1,3,5-trimethyl-1H-pyrazol-4-yl)-3,4-dihydropyrazino[1,2-a]indol-2(1H)-yl)methyl)benzoic acid]: for the setting “Ki bins given in nM”, the Ki was below 50 nM. The same measure, in the same setting: then `Cc1cc(OCCCc2c3n(c4c(-c5c(C)nn(C)c5C)c(Cl)ccc24)CCCN(Cc2cc(C(=O)O)cc(OCCC(C)C)n2)C3=O)cc(C)c1Cl` [I-302, 2-((8-chloro-11-(3-(4-chloro-3,5-dimethylphenoxy)propyl)-1-oxo-7-(1,3,5-trimethyl-1H-pyrazol-4-yl)-4,5-dihydro-1H-[1,4]diazepino[1,2-a]indol-2(3H)-yl)methyl)-6-(isopentyloxy)isonicotinic acid], with below 50 nM. Same read-out and setting: the result for `Cc1cc(OCCCc2c3n(c4c(-c5c(C)nn(C)c5C)c(Cl)ccc24)CCCN(Cc2ccc(C(=O)NS(=O)(=O)c4ccc(OCc5cccnc5)cc4)cc2)C3=O)cc(C)c1Cl` [I-310, 4-((8-chloro-11-(3-(4-chloro-3,5-dimethylphenoxy)propyl)-1-oxo-7-(1,3,5-trimethyl-1H-pyrazol-4-yl)-4,5-dihydro-1H-[1,4]diazepino[1,2-a]indol-2(3H)-yl)methyl)-N-((4-(pyridin-3-ylmethoxy)phenyl)sulfonyl)benzamide] reads below 50 nM; that for `Cc1cc(OCCCc2c(C(=O)NC3CCN(C(=O)C(=O)O)CC3)[nH]c3c(-c4c(C)nn(C)c4C)c(Cl)ccc23)cc(C)c1Cl` [I-321, 2-(4-(6-chloro-3-(3-(4-chloro-3,5-dimethylphenoxy)propyl)-7-(1,3,5-trimethyl-1H-pyrazol-4-yl)-1H-indole-2-carboxamido)piperidin-1-yl)-2-oxoacetic acid], below 50 nM. On the same count and under the same terms, the result for `Cc1cc(OCCCc2c3n(c4c(-c5c(C)nn(C)c5C)c(Cl)ccc24)CCN(c2ccc(C(=O)O)c4ncccc24)C3=O)cc(C)c1Cl` [I-161, 5-(7-chloro-10-(3-(4-chloro-3,5-dimethylphenoxy)propyl)-1-oxo-6-(1,3,5-trimethyl-1H-pyrazol-4-yl)-3,4-dihydropyrazino[1,2-a]indol-2(1H)-yl)quinoline-8-carboxylic acid] reads below 50 nM; that for `Cc1cc(OCCCc2c3n(c4c(-c5c(C)nn(C)c5C)cccc24)CCCN(Cc2ccc(N4CCCC4)c(C(=O)O)c2)C3=O)cc(C)c1Cl` [I-78, 5-((11-(3-(4-chloro-3,5-dimethylphenoxy)propyl)-1-oxo-7-(1,3,5-trimethyl-1H-pyrazol-4-yl)-4,5-dihydro-1H-[1,4]diazepino[1,2-a]indol-2(3H)-yl)methyl)-2-(pyrrolidin-1-yl)benzoic acid], 101 to 299 nM; that for `Cc1cc(OCCCc2c3n(c4c(-c5c(C)nn(CC(=O)O)c5C)c(Cl)ccc24)CCCNC3=O)cc(C)c1Cl` [I-295, 2-(4-(8-chloro-11-(3-(4-chloro-3,5-dimethylphenoxy)propyl)-1-oxo-2,3,4,5-tetrahydro-1H-[1,4]diazepino[1,2-a]indol-7-yl)-3,5-dimethyl-1H-pyrazol-1-yl)acetic acid], below 50 nM. As for `Cc1cc(OCCCc2c3n(c4c(-c5c(C)nn(C)c5C)c(Cl)ccc24)CCCN(Cc2cc(Br)cc(C(=O)O)c2)C3=O)cc(C)c1Cl` [I-299, 3-bromo-5-((8-chloro-11-(3-(4-chloro-3,5-dimethylphenoxy)propyl)-1-oxo-7-(1,3,5-trimethyl-1H-pyrazol-4-yl)-4,5-dihydro-1H-[1,4]diazepino[1,2-a]indol-2(3H)-yl)methyl)benzoic acid], the Ki (Ki bins given in nM) was below 50 nM.

For the molecule `Cc1cc(OCCCc2c(C(=O)Nc3cc(C(=O)O)c4cc[nH]c4c3)[nH]c3c(-c4c(C)nn(C)c4C)c(Cl)ccc23)cc(C)c1Cl` [I-238, 6-(6-chloro-3-(3-(4-chloro-3,5-dimethylphenoxy)propyl)-7-(1,3,5-trimethyl-1H-pyrazol-4-yl)-1H-indole-2-carboxamido)-1H-indole-4-carboxylic acid], the Ki (Ki bins given in nM) is below 50 nM. On the same count and under the same terms, the result for `Cc1cc(OCCCc2c3n(c4c(-c5c(C)nn(C)c5C)c(Cl)ccc24)[C@H](C)CN(Cc2ccc(C(=O)O)cc2)C3=O)cc(C)c1Cl` [I-154, (R)-4-((7-chloro-10-(3-(4-chloro-3,5-dimethylphenoxy)propyl)-4-methyl-1-oxo-6-(1,3,5-trimethyl-1H-pyrazol-4-yl)-3,4-dihydropyrazino[1,2-a]indol-2(1H)-yl)methyl)benzoic acid] reads below 50 nM. For `CCOC(=O)c1ccc(N2CCN(C(=O)c3[nH]c4cc(Cl)ccc4c3CCCOc3cc(C)c(Cl)c(C)c3)CC2)cc1` [I-50, ethyl 4-(4-(6-chloro-3-(3-(4-chloro-3,5-dimethylphenoxy)propyl)-1H-indole-2-carbonyl)piperazin-1-yl)benzoate], the inhibition constant (Ki) (Ki bins given in μM) lay in the range of 10000 to 50000 nM. `Cc1cc(OCCCc2c(C(=O)N[C@H]3CCC[C@@H](C(=O)O)C3)[nH]c3c(-c4c(C)nn(C)c4C)c(Cl)ccc23)cc(C)c1Cl` [I-331, (1R,3S)-3-(6-chloro-3-(3-(4-chloro-3,5-dimethylphenoxy)propyl)-7-(1,3,5-trimethyl-1H-pyrazol-4-yl)-1H-indole-2-carboxamido)cyclohexane-1-carboxylic acid]: the inhibition constant (Ki) (Ki bins given in nM) was below 50 nM. For the molecule `Cc1cc(OCCCc2c3n(c4c(-c5c(C)nn(C)c5C)c(Cl)ccc24)[C@@H](C)CN(Cc2cccc(C(=O)O)c2)C3=O)cc(C)c1Cl` [I-151, (S)-3-((7-chloro-10-(3-(4-chloro-3,5-dimethylphenoxy)propyl)-4-methyl-1-oxo-6-(1,3,5-trimethyl-1H-pyrazol-4-yl)-3,4-dihydropyrazino[1,2-a]indol-2(1H)-yl)methyl)benzoic acid], the inhibition constant Ki (Ki bins given in nM) was below 50 nM. Same read-out and setting: the result for `Cc1cc(OCCCc2c3n(c4c(-c5c(C)nn(C)c5C)c(Cl)ccc24)CCCN(Cc2ccc(C(=O)O)cn2)C3=O)cc(C)c1Cl` [I-102, 6-((8-chloro-11-(3-(4-chloro-3,5-dimethylphenoxy)propyl)-1-oxo-7-(1,3,5-trimethyl-1H-pyrazol-4-yl)-4,5-dihydro-1H-[1,4]diazepino[1,2-a]indol-2(3H)-yl)methyl)nicotinic acid] reads below 50 nM.

Take `Cc1cc(OCCCc2c3n(c4c(-c5c(C)nn(C)c5C)c(Cl)ccc24)CCCN(Cc2cc(OCCCC(C)C)cc(C(=O)O)c2)C3=O)cc(C)c1Cl` [I-301, 3-((8-chloro-11-(3-(4-chloro-3,5-dimethylphenoxy)propyl)-1-oxo-7-(1,3,5-trimethyl-1H-pyrazol-4-yl)-4,5-dihydro-1H-[1,4]diazepino[1,2-a]indol-2(3H)-yl)methyl)-5-((4-methylpentyl)oxy)benzoic acid]: for the setting “Ki bins given in nM”, the Ki was below 50 nM.
